According to PMC11310081, “Deep-learning-enabled antibiotic discovery through molecular de-extinction” (Nature Biomedical Engineering, 2024):
Where two headings read alike, the source gives them in different places. Peptide text beside a SMILES is read from it.

Columns and labels:
[1] = test system: 11 clinically relevant bacterial pathogens; assay type: cell-based; conditions: Supplementary Dataset 2; against the 11 pathogens tested
Description: The following Gram-negative bacteria were used in our study: A. baumannii ATCC 19606, E. coli ATCC 11775, E. coli AIC221 (E. coli MG1655 phnE_2::FRT), E. coli AIC222 (E. coli MG1655 pmrA53 phnE_2::FRT (colistin resistant)), K. pneumoniae ATCC 13883, P. aeruginosa PAO1 and P. aeruginosa PA14. The following Gram-positive bacteria were also used in our study: S. aureus ATCC 12600, S. aureus ATCC BAA-1556 (methicillin-resistant strain), E. faecalis ATCC 700802 (vancomycin-resistant strain) and E. faecium ATCC 700221 (vancomycin-resistant strain). Bacteria were grown from frozen stocks and plated on Luria–Bertani (LB) or Pseudomonas isolation agar plates (P. aeruginosa strains) and incubated overnight at 37 °C. After the incubation period, a single colony was transferred to 5 ml of LB medium, and cultures were incubated overnight (16 h) at 37 °C. The following day, an inoculum was prepared by diluting the overnight cultures 1:100 in 5 ml of the respective media and incubating them at 37 °C until bacteria reached logarithmic phase (OD600 = 0.3–0.5).
The in vitro antimicrobial activity of the peptides was assessed by using the broth microdilution assay. […] Aqueous solutions of the peptides were added to the plate at concentrations ranging from 1 to 64 μmol l^−1. […] The optical density of the plates was measured at 600 nm using a spectrophotometer. All assays were done as three biological replicates.

HEK293T cells = test system: HEK293T cells
Procedure: HEK293T cells were obtained from the American Type Culture Collection (CRL-3216). The cells were cultured in high-glucose Dulbecco’s modified Eagle’s medium supplemented with 1% penicillin and streptomycin (antibiotics) and 10% fetal bovine serum and grown at 37 °C in a humidified atmosphere containing 5% CO2.
One day before the experiment, an aliquot of 100 μl of the cells at 50,000 cells per ml was seeded into each well of the cell-treated 96-well plates used in the experiment (that is, 5,000 cells per well). […] After the incubation period, we performed the 3-(4,5-dimethylthiazol-2-yl)-2,5-diphenyltetrazolium bromide tetrazolium reduction assay (MTT assay)[53]. The MTT reagent was dissolved at 0.5 mg ml^−1 in medium without phenol red and was used to replace cell culture supernatants containing the peptides (100 μl per well), and the samples were incubated for 4 h at 37 °C in a humidified atmosphere containing 5% CO2 yielding the insoluble formazan salt. The resulting salts were then resuspended in hydrochloric acid (0.04 mol l^−1) in anhydrous isopropanol and quantified by spectrophotometric measurements of absorbance at 570 nm. All assays were done as three biological replicates.
Unless otherwise stated, all assays were performed in three independent biological replicates as indicated in each figure legend and Methods sections. The cytotoxic activities values were estimated using non-linear regression based on the range of concentrations screened and were shown as the values that cause lysis of 50% of the cells in the experiment. Two technical replicates were performed in the cytotoxicity assays within each of the three biological replicates.

A. baumannii ATCC 19606 [2] = assay: Skin abscess infection mouse model; assay type: in vivo, CD-1 mice; conditions: CD-1 mice
Procedure: A. baumannii ATCC 19606 cells were grown in LB medium to an OD600 = 0.5. Cells were washed twice with sterile phosphate-buffered saline (PBS) (pH 7.4, 13,000 r.p.m. for 2 min) and resuspended to a final concentration of 10^6 (A. baumannii cells) colony-forming units per millilitre (c.f.u. ml^−1). Six-week-old female CD-1 mice from Charles River (stock number 18679700-022) were anaesthetized with isoflurane, and their backs were sterilized and shaved. A superficial linear skin abrasion was made with a needle to damage the stratum corneum and upper layer of the epidermis. An aliquot of 20 μl containing the bacterial load resuspended in PBS was inoculated over the scratched area. Two hours after the infection, peptides diluted in water at their MIC value were administered to the infected area, and the untreated mice were inoculated with the same volume of deionized water. Mice were euthanized, and the area of scarified skin was excised 2 days and 4 days post infection, homogenized using a bead beater for 20 min (25 Hz) and then serially diluted tenfold for quantification of colony-forming units. This quantitative method was used as it has been established to accurately reflect the number of bacteria present in a given infected area. MacConkey agar plates were used as A. baumannii colonies appear purple in this medium and can easily be distinguished from other strains. The experiments were performed with six mice per group. All experiments were performed blindly, and no animal subjects were excluded from the analysis. The skin abscess infection mouse model was approved by the University Laboratory Animal Resources from the University of Pennsylvania (protocol 806763). Statistical significance was determined using one-way analysis of variance (ANOVA) followed by Dunnett’s test in log10-transformed data to mitigate the effect of outliers; P values are presented for each group, with all groups being compared to the untreated control group.

A. baumannii ATCC 19606 [3] = assay: Neutropenic thigh infection mouse model; assay type: in vivo, CD-1 mice; conditions: neutropenic CD-1 mice
Procedure: Six-week-old female CD-1 mice from Charles River (stock number 18679700-022) were rendered neutropenic by two doses of cyclophosphamide (150 mg kg^−1) applied intraperitoneally with an interval of 72 h. One day after the last dose of cyclophosphamide, the mice were injected intramuscularly in their right thigh with a bacterial load of 10^6 c.f.u. ml^−1 of A. baumannii ATCC 19606 cells. The bacteria had been grown in LB broth, washed twice with PBS (pH 7.4), and resuspended to the desired concentration. Two hours after bacterial injection, peptides resuspended in water were administered intraperitoneally, and the untreated mice were inoculated with the same volume of deionized water. Before each injection, mice were anaesthetized with isoflurane and monitored for respiratory rate and pedal reflexes. Next, we monitored the establishment of the infection and euthanized the mice. The infected area was excised 2 days and 4 days post infection, homogenized using a bead beater for 20 min (25 Hz), and then serially diluted tenfold for quantification of colony-forming units in MacConkey agar plates. The experiments were performed with six mice per group. All experiments were performed blindly, and no animal subjects were excluded from the analysis. The thigh infection mouse model was approved by the University Laboratory Animal Resources from the University of Pennsylvania (protocol 807055). Statistical significance was determined using one-way ANOVA followed by Dunnett’s test in log10-transformed data to mitigate the effect of outliers; P values are presented for each group, with all groups being compared to the untreated control group.

[4] = A. baumannii ATCC 19606, day 2, replicate 1
[5] = A. baumannii ATCC 19606, day 2, replicate 2
[6] = A. baumannii ATCC 19606, day 2, replicate 3
[7] = A. baumannii ATCC 19606, day 2, replicate 4
[8] = A. baumannii ATCC 19606, day 2, replicate 5
[9] = A. baumannii ATCC 19606, day 2, replicate 6
[10] = A. baumannii ATCC 19606, day 4, replicate 1
[11] = A. baumannii ATCC 19606, day 4, replicate 2
[12] = A. baumannii ATCC 19606, day 4, replicate 3
[13] = A. baumannii ATCC 19606, day 4, replicate 4
[14] = A. baumannii ATCC 19606, day 4, replicate 5
[15] = A. baumannii ATCC 19606, day 4, replicate 6

Molecule: CC[C@H](C)[C@H](N)C(=O)N[C@@H](CC(C)C)C(=O)N[C@@H](CC(C)C)C(=O)N[C@H](C(=O)N[C@H](C(=O)N[C@@H](C)C(=O)N[C@H](C(=O)N[C@@H](C)C(=O)N[C@H](C(=O)N[C@@H](CCCCN)C(=O)N[C@@H](CC(C)C)C(=O)NCC(=O)N[C@@H](CC(C)C)C(=O)O)[C@@H](C)CC)[C@@H](C)CC)[C@@H](C)O)[C@@H](C)O [Ararin-1] (H-ILLTTAIAIKLGL-OH; N-terminus and C-terminus assumed)
- Active or Inactive [1]: Active
- CC50 (HEK293T cells; 24 h): > 128 µmol/L
- TI (therapeutic index) (HEK293T cells; 24 h): > 4

Molecule: CC[C@H](C)[C@H](NC(=O)[C@H](CCCCN)NC(=O)[C@H](CC(C)C)NC(=O)[C@H](Cc1c[nH]cn1)NC(=O)[C@@H](N)CC(C)C)C(=O)N[C@@H](CC(C)C)C(=O)N[C@@H](CCCCN)C(=O)N[C@H](C(=O)N[C@H](C(=O)N[C@@H](CCCNC(=N)N)C(=O)N[C@@H](CC(C)C)C(=O)N[C@@H](CC(C)C)C(=O)O)[C@@H](C)CC)[C@@H](C)CC [Elephasin-1] (H-LHLKILKIIRLL-OH; N-terminus and C-terminus assumed)
- Active or Inactive [1]: Active

Molecule: CC[C@H](C)[C@H](NC(=O)[C@H](Cc1c[nH]cn1)NC(=O)[C@@H](N)CC(C)C)C(=O)NCC(=O)N[C@@H](CC(C)C)C(=O)N[C@H](C(=O)N[C@@H](CCCCN)C(=O)N[C@H](C(=O)N[C@@H](Cc1ccc(O)cc1)C(=O)N[C@@H](CC(C)C)C(=O)NCC(=O)N[C@@H](CO)C(=O)N[C@@H](Cc1ccccc1)C(=O)N[C@@H](C)C(=O)N[C@@H](CC(C)C)C(=O)O)[C@@H](C)O)[C@@H](C)CC [Eudyptin-1] (H-LHIGLIKTYLGSFAL-OH; N-terminus and C-terminus assumed)
- Active or Inactive [1]: Active
- CC50 (HEK293T cells; 24 h): > 128 µmol/L
- TI (therapeutic index) (HEK293T cells; 24 h): > 2

Molecule: CC[C@H](C)[C@H](N)C(=O)N[C@H](C(=O)NCC(=O)N[C@@H](CC(N)=O)C(=O)N[C@H](C(=O)N[C@@H](Cc1ccccc1)C(=O)NCC(=O)N[C@@H](Cc1ccccc1)C(=O)N[C@@H](CCCCN)C(=O)N[C@@H](C)C(=O)N[C@@H](CC(C)C)C(=O)N[C@@H](CCCNC(=N)N)C(=O)N[C@@H](C)C(=O)N[C@@H](CC(C)C)C(=O)N[C@@H](CCCNC(=N)N)C(=O)N[C@@H](CC(C)C)C(=O)O)C(C)C)C(C)C [Hesperelin-4] (H-IVGNVFGFKALRALRL-OH; N-terminus and C-terminus assumed)
- Active or Inactive [1]: Active

Molecule: CC[C@H](C)[C@H](NC(=O)[C@H](CCCCN)NC(=O)[C@H](CC(C)C)NC(=O)[C@H](CO)NC(=O)[C@@H](NC(=O)[C@H](CO)NC(=O)[C@H](CC(C)C)NC(=O)[C@H](CCCCN)NC(=O)[C@@H](NC(=O)[C@@H](NC(=O)[C@H](CC(N)=O)NC(=O)[C@@H](NC(=O)[C@@H](NC(=O)[C@@H](NC(=O)[C@H](Cc1c[nH]c2ccccc12)NC(=O)[C@@H](N)Cc1c[nH]cn1)[C@@H](C)CC)[C@@H](C)O)[C@@H](C)CC)[C@@H](C)O)[C@@H](C)CC)[C@@H](C)CC)C(=O)O [Lophiosin-1] (H-HWITINTIKLSISLKI-OH; N-terminus and C-terminus assumed)
- Active or Inactive [1]: Active
- CC50 (HEK293T cells): 68.02 µmol/L

Molecule: CC[C@H](C)[C@H](NC(=O)[C@H](Cc1ccccc1)NC(=O)[C@@H](N)CC(C)C)C(=O)NCC(=O)N[C@@H](CC(C)C)C(=O)N[C@H](C(=O)N[C@@H](CC(N)=O)C(=O)N[C@@H](CC(C)C)C(=O)N[C@@H](CC(C)C)C(=O)NCC(=O)N[C@@H](CC(C)C)C(=O)N[C@@H](CC(C)C)C(=O)O)[C@@H](C)O [Mammuthusin-4] (H-LFIGLTNLLGLL-OH; N-terminus and C-terminus assumed)
- Active or Inactive [1]: Active
- CC50 (HEK293T cells; 24 h): > 128 µmol/L

Molecule: polymyxin B [reference compound]
- bacterial count, skin abscess (Panel 6b) (A. baumannii ATCC 19606 [2]; [4]): 4000
- bacterial count, skin abscess (Panel 6b) (A. baumannii ATCC 19606 [2]; [5]): 2000
- bacterial count, skin abscess (Panel 6b) (A. baumannii ATCC 19606 [2]; [6]): 8000
- bacterial count, skin abscess (Panel 6b) (A. baumannii ATCC 19606 [2]; [7]): 6000
- bacterial count, skin abscess (Panel 6b) (A. baumannii ATCC 19606 [2]; [8]): 1400
- bacterial count, skin abscess (Panel 6b) (A. baumannii ATCC 19606 [2]; [9]): 400
- bacterial count, skin abscess (Panel 6b) (A. baumannii ATCC 19606 [2]; [10]): 8000
- bacterial count, skin abscess (Panel 6b) (A. baumannii ATCC 19606 [2]; [11]): 10000
- bacterial count, skin abscess (Panel 6b) (A. baumannii ATCC 19606 [2]; [12]): 600
- bacterial count, skin abscess (Panel 6b) (A. baumannii ATCC 19606 [2]; [13]): 600
- bacterial count, skin abscess (Panel 6b) (A. baumannii ATCC 19606 [2]; [14]): 200
- bacterial count, skin abscess (Panel 6b) (A. baumannii ATCC 19606 [2]; [15]): 400
- bacterial count, thigh infection (Panel 6d) (A. baumannii ATCC 19606 [3]; [4]): 20000
- bacterial count, thigh infection (Panel 6d) (A. baumannii ATCC 19606 [3]; [5]): 80000
- bacterial count, thigh infection (Panel 6d) (A. baumannii ATCC 19606 [3]; [6]): 200000
- bacterial count, thigh infection (Panel 6d) (A. baumannii ATCC 19606 [3]; [7]): 40000
- bacterial count, thigh infection (Panel 6d) (A. baumannii ATCC 19606 [3]; [8]): 40000
- bacterial count, thigh infection (Panel 6d) (A. baumannii ATCC 19606 [3]; [9]): 200000
- bacterial count, thigh infection (Panel 6d) (A. baumannii ATCC 19606 [3]; [10]): 200000
- bacterial count, thigh infection (Panel 6d) (A. baumannii ATCC 19606 [3]; [11]): 400000
- bacterial count, thigh infection (Panel 6d) (A. baumannii ATCC 19606 [3]; [12]): 1200000
- bacterial count, thigh infection (Panel 6d) (A. baumannii ATCC 19606 [3]; [13]): 600000
- bacterial count, thigh infection (Panel 6d) (A. baumannii ATCC 19606 [3]; [14]): 600000
- bacterial count, thigh infection (Panel 6d) (A. baumannii ATCC 19606 [3]; [15]): 200000
